# What was measured:
# Format in all cases: in vivo, male Wistar rats, Rattus norvegicus
# [1] = Analysis of plasma compounds in rats fed high-fat diet supplemented with TTA, NR, NAR or combinations; parameters: Quinolinic acid / Nicotinamide / N1-Methylnicotinamide / Pyridoxal 5′-phosphate / Pyridoxal / Thiamine monophosphate: unit not given here; conditions: high-fat diet + supplement, 12 weeks
# Description: This example illustrates an animal study using male Wistar rats which were fed NR, NAR, TTA and combinations thereof.
# (§1) The animal study was conducted according to the Guidelines for the Care and Use of Experimental Animals, and in accordance with the Norwegian legislation and regulations governing experiments using live animals. All efforts were made to optimize the animal environment and minimize suffering. Eight weeks-old old male Wistar rats, Rattus norvegicus, weighing 400-450 g, were purchased from Taconic (Ejby, Denmark). Upon arrival the rats were randomized using Research Randomizer, labeled and placed in open cages, two in each cage, where they were allowed to acclimatize to their surroundings for one week. During the acclimatization and experiment period, the rats had unrestricted access to tap water, but restricted access to chow to obtain a constant dose through the experiment.
# (§2) The rats were kept in a 12 hours light/dark cycle at a constant temperature (22±2° C.) and a relative humidity of 55% (±5%). Upon start of the experiment, the rats were block randomized to their respective interventions. All rats were divided into seven groups. The first group of animals (control group) was fed a high-fat diet (HF) with 25% by weight fat, consisting of 23% by weight lard and 2% by weight soybean oil, referred to as “HF”. The second group was fed a high-fat diet (HF) supplemented with tetradecylthioacetic acid (TTA) (250 mg/day/kg body weight), referred to as “HF+TTA”. The third group was fed a high-fat diet (HF) supplemented with nicotineamide riboside (NR) (100 mg/day/kg body weight), referred to as “HF+NR”. The fourth group was fed a high-fat diet (HF) supplemented with nicotinic acid riboside (NAR) (40 mg/day/kg body weight), referred to as “HF+NAR”. The fifth group was fed a high-fat diet (HF) supplemented with both tetradecylthioacetic acid (TTA) (250 mg/day/kg body weight) and nicotineamide riboside (NR) (100 mg/day/kg body weight), referred to as “HF+TTA+NR”. The sixth group was fed a high-fed diet (HF) supplemented with both tetradecylthioacetic acid (TTA) (250 mg/day/kg body weight) and nicotinic acid riboside (NAR) (40 mg/day/kg body weight), referred to as “HF+TTA+NAR”. The seventh group was fed a low-fed diet, referred to as “LF”.
# (§3) All animals were weighed daily and feed intake was determined weekly. The animal experiment was run for 12 weeks. At sacrifice, rats were anaesthetized by inhalation of 2-5% isoflurane (Schering-Plough, Kent, UK), the abdomen opened along the midline, and exsanguination was performed using cardiac puncture. EDTA-blood was collected and immediately chilled on ice. The samples were centrifuged and plasma was stored at −80° C. prior to analysis. Different tissues were collected, weighed and were immediately snap-frozen in liquid nitrogen and stored at −80° C. until further analysis.
# [2] = Body and adipose tissue weights in rats fed supplemented high-fat diet
# Description: as §1, with “Eight weeks-old old male Wistar rats, Rattus norvegicus, weighing 400-450 g, were purchased from Taconic (Ejby, Denmark).” left out
# as §2, §3
# [3] = Plasma lipids and total fatty acids in rats fed supplemented high-fat diet; conditions: high-fat diet + supplement, 12 weeks
# Description: as §1, with “Eight weeks-old old male Wistar rats, Rattus norvegicus, weighing 400-450 g, were purchased from Taconic (Ejby, Denmark).” left out
# as §2, §3
# [4] = Liver lipids in rats fed supplemented high-fat diet; conditions: high-fat diet + supplement, 12 weeks
# Description: as §1, with “Eight weeks-old old male Wistar rats, Rattus norvegicus, weighing 400-450 g, were purchased from Taconic (Ejby, Denmark).” left out
# The rats were kept in a 12 hours light/dark cycle at a constant temperature (22±2° C.) and a relative humidity of 55% (±5%). Upon start of the experiment, the rats were block randomized to their respective interventions. All rats were divided into seven groups. The first group of animals (control group) was fed a high-fat diet (HF) with 25% by weight fat, consisting of 23% by weight lard and 2% by weight soybean oil, referred to as “HF”. The second group was fed a high-fat diet (HF) supplemented with tetradecylthioacetic acid (TTA) (250 mg/day/kg body weight), referred to as “HF+TTA”. […]
# All animals were weighed daily and feed intake was determined weekly. […]
# [5] = high-fat diet + supplement, 12 weeks
molecule,measurement,setting,value
"O=C([O-])c1ccc[n+]([C@@H]2O[C@H](CO)[C@@H](O)[C@H]2O)c1 [HF + NAR, nicotinic acid riboside]",2-Aminoadipic acid,[1],1.34 µM
same,3-Hydroxyanthranilic acid,[1],7.8 µM
same,Folic acid,[1],0.70 µM
same,Methylmalonic acid,[1],2.35 µM
same,N1-Methylnicotinamide,[1],2414
same,Nicotinamide,[1],4308
same,Nicotinic acid,[1],11.95 µM
same,Pyridoxal,[1],384.1
same,Pyridoxal 5′-phosphate,[1],598.3
same,Serine,[1],325 µM
same,Thiamine monophosphate,[1],350.0
same,Trigonelline,[1],0.084 µM
nicotineamide riboside [HF + NR],Brown adipose tissue weight,[2]; [5],0.308 g
same,White adipose tissue weight,[2]; [5],34.52 g
same,Body weight end,"[2]; high-fat diet + supplement, end of 12 weeks",555.60 g
same,Body weight start,[2]; start of experiment (baseline),409.60 g
same,2-Aminoadipic acid,[1],1.33 µM
same,3-Hydroxyanthranilic acid,[1],5.4 µM
same,3-Hydroxybutyrate,[1],287 µM
same,Acetoacetate,[1],72.9 µM
same,Glycine,[1],221 µM
same,Methylmalonic acid,[1],3.37 µM
same,N1-Methylnicotinamide,[1],3616
same,Nicotinamide,[1],5870
same,Nicotinic acid,[1],12.38 µM
same,Pyridoxal,[1],369.8
same,Pyridoxal 5′-phosphate,[1],729.0
same,Quinolinic acid,[1],533
same,HDL/LDL ratio,[3],2.117
same,Plasma lipids: Cholesterol,[3],2.000 mmol/L
same,Plasma lipids: High density lipoprotein,[3],0.938 mmol/L
same,Plasma lipids: Low density lipoprotein,[3],0.450 mmol/L
same,Plasma lipids: Triglycerides,[3],2.194 mmol/L
same,"Total fatty acids, plasma",[3],3049 µg/mL
same,Liver lipids: Cholesterol,[4],39.84 µmol/g
same,Liver lipids: Triglycerides,[4],75.22 µmol/g

# Source: patent publication US20250345299A1, “COMBINATION AND COMPOSITION COMPRISING NICOTINIC ACID OR DERIVATIVE THEREOF AND FATTY ACID OR DERIVATIVE THEREOF” (T OMEGA AS, priority 2022, published 2025)
